US11130733B2, “4-OXO-alkylated tetramic acid compound, preparation method and use thereof” (BEIJING JOEKAI BIOTECH. LLC, priority 2017, dated 2021)

How the values were obtained:
[1] = system: Salmonella typhimurium TA100; test: Mini Ames experiment, strain TA100; format: cell-based
Protocol: (§1) Histidine auxotrophic strains of Salmonella typhimurium were cultured in a special medium with quite a low content of histidine. The strains were difficult to divide due to lack of nutrition. If a test compound has mutagenicity, a large number of cells will undergo reverse mutation, synthesizing histidine by themselves and developing into colonies visible to the naked eye. In view of the close relationship between mutagenicity and carcinogenesis of chemicals, this method has been widely used in screening carcinogens. Some chemicals need metabolic activation to induce mutagenicity. Mammalian microsomal enzyme S9 can be added into the test system to eliminate the influence of metabolic activation on generation of mutagenicity.
(§2) […] Mini Ames test with compound 50561

[2] = system: Salmonella typhimurium TA98; test: Mini Ames experiment, strain TA98; format: cell-based
Protocol: as §1, §2

[3] = system: Drosophilae containing and expressing human Abeta42 gene; test: Pavlov's olfactory-related instantaneous memory test in Drosophila; format: in vivo; details: FIG. 3; with increase of dosage; compared with positive compound memantine hydrochloride
[4] = system: Drosophilae containing and expressing human Abeta42 gene; test: as above; format: in vivo; details: test medicament 100 μM, 50 μL per 100 drosophilae, 7 consecutive days; FIG. 1 and FIG. 2
Source text: Drosophila has a classical learning and memory paradigm, known as Pavlov's olfactory-related instantaneous memory. During the training program, a group of about 100 drosophilae were exposed sequentially to two odors, i.e., 3-octanol and 4-methylcyclohexanol, each odor for 60 seconds, and to fresh air for 45 seconds therebetween. During exposure to the first odor, the drosophilae were electrocuted on their feet (1.5-second pulses at 3.5-second intervals, 60V), while no electrocution was exerted during exposure to the second odor. In order to detect “instantaneous memory” (also known as “learning”), drosophilae were transferred to the selection area in the T maze immediately after training and forced to choose between the two odors. The drosophilae in each T-maze arm were then captured, anesthetized, and counted. The behavior index was calculated from the distribution of drosophilae in the T maze. […] In each experiment, the age of the control group was matched with that of the experimental group.
Pharmacodynamic evaluation of the candidate compounds: Drosophilae containing and expressing human Abeta42 gene were selected as a diseased control, and drosophilae containing but not expressing human Abeta42 gene were selected as a healthy control. The day after emergence of the drosophilae, male drosophilae were selected and fed. Starting from the third day, drosophilae were fed with a test medicament (100 μM, 50 μL per 100 drosophilae) for 7 consecutive days, 4 hours each day. The above memory test was performed on the drosophilae on the tenth day.

[5] = TA100, Without Metabolic Activation, control article 0.2 μg per well
[6] = TA98, Without Metabolic Activation, control article 2.0 μg per well
[7] = TA98, With Metabolic Activation, control article 0.4 μg per well
[8] = TA100, With Metabolic Activation, control article 0.4 μg per well

Row | Structure (SMILES) | dose-effect relationship to improve memory of drosophilae [3] | ability to improve the learning and memory of drosophilae [4] | also measured
1 | [N-]=[N+]=[N-].[Na+] [SA, reference compound] |  |  | Mean Revertants Per Well [1, 5]: 195.33; Ratio Treated/Solvent [1, 5]: 7.92
2 | O=[N+]([O-])c1ccc2c(c1)Cc1ccccc1-2 [Compound 2-NF, reference compound] |  |  | Mean Revertants Per Well [2, 6]: 421.00; Ratio Treated/Solvent [2, 6]: 61.61
3 | Nc1ccc2cc3ccccc3cc2c1 [Compound 2-AA, reference compound] |  |  | Mean Revertants Per Well [2, 7]: 297.67; Ratio Treated/Solvent [2, 7]: 35.72; Mean Revertants Per Well [1, 8]: 317.67; Ratio Treated/Solvent [1, 8]: 9.72
4 | O=C1C=C(OCc2ccccc2F)[C@H](Cc2ccccc2)N1 [Compound 51121] | eventually reaches or exceeds the level of the activity of the positive compound memantine hydrochloride | best ability to improve the learning and memory of drosophilae | 
5 | O=C1C=C(OCc2cccs2)[C@H](Cc2ccccc2)N1 [Compound 51151] | eventually reaches or exceeds the level of the activity of the positive compound memantine hydrochloride | best ability to improve the learning and memory of drosophilae | 
6 | CC(=O)Oc1ccc(COC2=CC(=O)N[C@H]2Cc2ccccc2)cc1 [Compound 51351] | eventually reaches or exceeds the level of the activity of the positive compound memantine hydrochloride | best ability to improve the learning and memory of drosophilae | 
7 | O=C1C=C(OCc2cccc3ccccc23)[C@H](Cc2ccccc2)N1 [Compound 51311] | eventually reaches or exceeds the level of the activity of the positive compound memantine hydrochloride | best ability to improve the learning and memory of drosophilae | 
8 | COc1ccc(C[C@@H]2NC(=O)C=C2OCc2ccc(OC(C)=O)cc2)cc1 [Compound 60111] |  | quite a good ability to improve learning and memory of drosophilae | 
